Values of other authors as cited in patent publication EP0374532B1, “Improved phase separation-microencapsulated pharmaceutical compositions useful for alleviating dental disease” (AMERICAN CYANAMID COMPANY, priority 1988, dated 1990).

Conditions: human periodontal fluid versus serum

## CN(C)c1ccc(O)c2c1C[C@H]1C[C@H]3[C@H](N(C)C)C(O)=C(C(N)=O)C(=O)[C@@]3(O)C(O)=C1C2=O [minocycline, 7-dimethylamino-6-deoxy-6-demethyltetracycline]
  levels in human periodontal fluid higher than serum levels: five
